What was measured:
Candida albicans = assay: Antifungal activity against Candida albicans NCIM 0707 after 18 hr by disk diffusion method; assay type: functional; note: test concentration or dose not given here
Escherichia coli = assay: Antibacterial activity against Escherichia coli NCIM 2065 after 18 hr by disk diffusion method; assay type: functional; note: test concentration or dose not given here
[1] = Solubility of the compound in benzene; assay type: physicochemical
Micrococcus luteus = assay: Antibacterial activity against Micrococcus luteus NCIM 2155 after 18 hr by disk diffusion method; assay type: functional; note: test concentration or dose not given here
[2] = Solubility of the compound in chloroform; assay type: physicochemical
Staphylococcus = assay: Antibacterial activity against Staphylococcus albus NCIM 2178 after 18 hr by disk diffusion method; assay type: functional; note: test concentration or dose not given here
[3] = Solubility of the compound in ethyl acetate; assay type: physicochemical
[4] = Solubility of the compound in dilute acids; assay type: physicochemical
[5] = Solubility of the compound in acetic acid; assay type: physicochemical
[6] = Solubility of the compound in ethanol; assay type: physicochemical
Salmonella paratyphi = assay: Antibacterial activity against Salmonella enterica subsp. enterica serovar Paratyphi A NCIM […] after 18 hr by disk diffusion method; assay type: functional
[7] = Solubility of the compound in DMF; assay type: physicochemical
Proteus vulgaris = assay: Antibacterial activity against Proteus vulgaris NCIM 2239 after 18 hr by disk diffusion method; assay type: functional; note: test concentration or dose not given here
[8] = Solubility of the compound in water; assay type: physicochemical
Lederbergia lenta = assay: Antibacterial activity against Bacillus lentus NCIM 2018 after 18 hr by disk diffusion method; assay type: functional; note: test concentration or dose not given here
Bacillus cereus = assay: Antibacterial activity against Bacillus cereus NCIM 2018 after 18 hr by disk diffusion method; assay type: functional; note: test concentration or dose not given here
[9] = Solubility of the compound in DMSO; assay type: physicochemical
Klebsiella aerogenes = assay: Antibacterial activity against Enterobacter aerogenesNCIM 2075 after 18 hr by disk diffusion method; assay type: functional, NCIM 2075; note: test concentration or dose not given here

Compound	diameter of the inhibition zone (DIZ) (Candida albicans)	diameter of the inhibition zone (DIZ) (Escherichia coli)	solubility [1]	diameter of the inhibition zone (DIZ) (Micrococcus luteus)	solubility [2]	diameter of the inhibition zone (DIZ) (Staphylococcus)	solubility [3]	solubility [4]	solubility [5]	solubility [6]	diameter of the inhibition zone (DIZ) (Salmonella paratyphi)	solubility [7]	diameter of the inhibition zone (DIZ) (Proteus vulgaris)	solubility [8]	diameter of the inhibition zone (DIZ) (Lederbergia lenta)	diameter of the inhibition zone (DIZ) (Bacillus cereus)	solubility [9]	diameter of the inhibition zone (DIZ) (Klebsiella aerogenes)
COc1cc(/C=N/NC(=O)Nn2c(-c3ccccc3)nc3ccccc3c2=O)ccc1O	21 mm	19 mm	soluble	15 mm	soluble	13 mm	soluble	soluble	soluble	soluble	15 mm	soluble	16 mm	Insoluble	18 mm	14 mm	soluble	16 mm
O=C(N/N=C1/C(=O)Nc2ccccc21)Nn1c(-c2ccccc2)nc2ccccc2c1=O	22 mm	21 mm	soluble	16 mm	soluble	13 mm	soluble	soluble	soluble	soluble	16 mm	soluble	17 mm	Insoluble	17 mm	12 mm	soluble	17 mm
CC12CCC(C/C1=N/NC(=O)Nn1c(-c3ccccc3)nc3ccccc3c1=O)C2(C)C (centres undefined)	20 mm	18 mm	Insoluble	14 mm	soluble	12 mm	soluble	Insoluble	Insoluble	soluble	15 mm	soluble	17 mm	Insoluble	17 mm	14 mm	soluble	16 mm
O=C(NN=C(c1ccccc1)c1ccccc1)Nn1c(-c2ccccc2)nc2ccccc2c1=O	25 mm	21 mm	soluble	12 mm	soluble	10 mm	soluble	Insoluble	Insoluble	soluble	16 mm	soluble	16 mm	Insoluble	17 mm	15 mm	soluble	15 mm
CN(C)c1ccc(/C=N/NC(=O)Nn2c(-c3ccccc3)nc3ccccc3c2=O)cc1	21 mm	19 mm	soluble	16 mm	soluble	16 mm	soluble	Insoluble	Insoluble	soluble	15 mm	soluble	18 mm	Insoluble	18 mm	17 mm	soluble	17 mm
O=C(O)c1cn(C2CC2)c2cc(N3CCNCC3)c(F)cc2c1=O [CIPROFLOXACIN]	–	16 mm	–	8 mm	–	8 mm	–	–	–	–	8 mm	–	8 mm	–	9 mm	9 mm	–	10 mm
Clc1ccccc1C(c1ccccc1)(c1ccccc1)n1ccnc1 [CLOTRIMAZOLE]	14 mm	–	–	–	–	–	–	–	–	–	–	–	–	–	–	–	–	–

— ChEMBL document CHEMBL3046426, “Analytical and biological characterization of quinazoline semicarbazone derivatives” (Med Chem Res, 2010)
